The text below walks through data of patent US20260355165A1, “2,3,4,9-TETRAHYDRO-1H-PYRIDO[3,4-B]INDOLE DERIVATIVES AS ESTROGEN RECEPTOR MODULATORS FOR THE TREATMENT OF CANCER” (Olema Pharmaceuticals, Inc., priority 2022, published 2026).

The target of the experiment is T1, estrogen receptor (Homo sapiens, UniProt P03372).
T1 construct: endogenous in cells; host or cells: ECC-1 cells
T1 sequence (P03372 1-595): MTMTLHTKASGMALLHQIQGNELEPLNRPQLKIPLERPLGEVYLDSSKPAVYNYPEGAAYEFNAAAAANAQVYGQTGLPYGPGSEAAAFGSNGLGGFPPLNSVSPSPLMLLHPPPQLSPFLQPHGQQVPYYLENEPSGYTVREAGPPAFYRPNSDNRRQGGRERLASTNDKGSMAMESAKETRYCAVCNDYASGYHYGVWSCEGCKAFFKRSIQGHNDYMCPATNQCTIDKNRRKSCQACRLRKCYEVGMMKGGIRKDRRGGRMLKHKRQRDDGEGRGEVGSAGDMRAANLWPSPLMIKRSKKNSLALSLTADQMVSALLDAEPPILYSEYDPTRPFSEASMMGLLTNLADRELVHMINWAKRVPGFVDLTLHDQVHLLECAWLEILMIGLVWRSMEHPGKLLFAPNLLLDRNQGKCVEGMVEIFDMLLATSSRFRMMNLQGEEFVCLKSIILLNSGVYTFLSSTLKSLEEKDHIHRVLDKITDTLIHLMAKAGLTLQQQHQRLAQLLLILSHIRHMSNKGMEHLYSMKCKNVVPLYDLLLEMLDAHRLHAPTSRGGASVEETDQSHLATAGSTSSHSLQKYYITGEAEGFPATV
Description: AP assay (alkaline phosphatase activity in ECC-1 cells), agonist mode (absence of E2) and antagonist mode (presence of 500 pM E2). The experiment is classed as cell-based. The conditions noted are these: 3 days, AP activity normalized to 500 pM E2 alone, agonist and antagonist mode combined. A digest of the protocol: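 Read-out is absorbance at 405 nm from p-nitrophenyl phosphate cleavage (40 min, 42 °C), expressed relative to 500 pM E2 alone. Compounds were applied to ECC-1 cells in hormone-depleted medium for 3 days, either alone (agonist) or alongside 500 pM E2 (antagonist).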

As for `CC1CN(Cc2cnc3[nH]cc([C@@H]4c5[nH]c6ccccc6c5C[C@@H](C)N4CC(C)(C)F)c3c2)C1` [Compound I-59, (1R,3R)-2-(2-fluoro-2-methyl-propyl)-3-methyl-1-[5-[(3-methylazetidin-1-yl)methyl]-1H-pyrrolo[2,3-b]pyridin-3-yl]-1,3,4,9-tetrahydropyrido[3,4-b]indole], the “Activity (estrogen receptor modulation, e.g., agonism and antagonism)” value was “+ (estrogen receptor agonism having (i) at least 80% increase in the E2-normalized signal in the AP assay (agonist mode) and (ii) no more than 80% reduction in the E2-normalized signal in the AP assay (antagonist mode))”. The result for `C[C@@H]1Cc2c([nH]c3ccccc23)[C@@H](c2c[nH]c3ncc(CN4CC(CF)C4)cc23)N1CC(C)(C)F` [Compound I-60, (1R,3R)-1-[5-[[3-(fluoromethyl)azetidin-1-yl]methyl]-1H-pyrrolo[2,3-b]pyridin-3-yl]-2-(2-fluoro-2-methyl-propyl)-3-methyl-1,3,4,9-tetrahydropyrido[3,4-b]indole] reads “+ (estrogen receptor agonism having (i) at least 80% increase in the E2-normalized signal in the AP assay (agonist mode) and (ii) no more than 80% reduction in the E2-normalized signal in the AP assay (antagonist mode))”; that for `C[C@@H]1Cc2c([nH]c3ccccc23)[C@@H](c2c[nH]c3ncc(CN4CC5CC5C4)cc23)N1CC(C)(C)F` (stereo partly drawn) [Compound I-61, (1R,3R)-1-[5-(3-azabicyclo[3.1.0]hexan-3-ylmethyl)-1H-pyrrolo[2,3-b]pyridin-3-yl]-2-(2-fluoro-2-methyl-propyl)-3-methyl-1,3,4,9-tetrahydropyrido[3,4-b]indole], “+ (estrogen receptor agonism having (i) at least 80% increase in the E2-normalized signal in the AP assay (agonist mode) and (ii) no more than 80% reduction in the E2-normalized signal in the AP assay (antagonist mode))”. The result for `CC1CN(Cc2cc3cc([C@@H]4c5[nH]c6ccccc6c5C[C@@H](C)N4CC(C)(C)F)sc3[nH]2)C1` [Compound I-62, 2-[(1S,3R)-2-(2-fluoro-2-methyl-propyl)-3-methyl-1,3,4,9-tetrahydropyrido[3,4-b]indol-1-yl]-5-[(3-methylazetidin-1-yl)methyl]-6H-thieno[2,3-b]pyrrole] reads “++ (estrogen receptor antagonism having (i) between 10% and 80% increase in the E2-normalized signal in the AP assay (agonist mode) and (ii) between 10% and 80% reduction in the E2-normalized signal in the AP assay (antagonist mode))”; that for `C[C@@H]1Cc2c([nH]c3ccccc23)[C@@H](c2cc3cc(CN4CC(CF)C4)[nH]c3s2)N1CC(C)(C)F` [Compound I-63, 5-[[3-(fluoromethyl)azetidin-1-yl]methyl]-2-[(1S,3R)-2-(2-fluoro-2-methyl-propyl)-3-methyl-1,3,4,9-tetrahydropyrido[3,4-b]indol-1-yl]-6H-thieno[2,3-b]pyrrole], “++ (estrogen receptor antagonism having (i) between 10% and 80% increase in the E2-normalized signal in the AP assay (agonist mode) and (ii) between 10% and 80% reduction in the E2-normalized signal in the AP assay (antagonist mode))”; that for `C[C@@H]1Cc2c([nH]c3ccccc23)[C@@H](c2cc3[nH]c(CN4CC(CF)C4)cc3s2)N1CC(C)(C)F` [Compound I-64, 5-[[3-(fluoromethyl)azetidin-1-yl]methyl]-2-[(1S,3R)-2-(2-fluoro-2-methyl-propyl)-3-methyl-1,3,4,9-tetrahydropyrido[3,4-b]indol-1-yl]-4H-thieno[3,2-b]pyrrole], “++ (estrogen receptor antagonism having (i) between 10% and 80% increase in the E2-normalized signal in the AP assay (agonist mode) and (ii) between 10% and 80% reduction in the E2-normalized signal in the AP assay (antagonist mode))”.
